Among the data in patent US20250154154A1 (Relay Binney Street, 2nd Floor, priority 2020, published 2025) are IC50 values, retold here.

The target of one assay is SRC (Homo sapiens, UniProt P12931). Put plainly: SRC Biochemical Assay Protocol (microfluidic mobility shift assay, FLPeptide4 substrate). Summed up:
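Mobility-shift readout of phosphorylated FLPeptide4 (1.5 μM) after 90 min kinase reaction with 50 μM ATP and 0.26 nM SRC in pH 7.4 HEPES buffer. Compounds, tested 0.0017–100 μM, were preincubated 30 min with enzyme and peptide; IC50 from 4-parameter logistic fit versus neutral controls.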

Assay [1] relates to phospho-S6RP (Ser 235/236) in RBE cells. Put plainly: Cellular Proliferation Protocol (cellular phospho-S6RP HTRF), RBE cells. The format is cell-based. Particulars: 6 hours treatment, RBE or SNU-1079 cells, cell line not given. Summed up: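 Phospho-S6RP (Ser 235/236) was quantified by HTRF in lysed RBE cells (2000/well) after a 6 h treatment at 37° C, with overnight antibody incubation at room temperature. IC50 values came from 4-parameter dose-response fits relative to DMSO vehicle.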
Background: In TR-FRET formats the signal depends on donor and acceptor labels being close together.

Another assay has as its system RBE cells. Put plainly: Cell Viability Protocol (CellTiterGlo), RBE cells. The format is cell-based. The note with it: RBE or SNU-1079 cells, 72 or 120 hour, cell line and time not given. Summed up: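 After 72 h or 120 h compound exposure at 37° C, viability was read by CellTiterGlo as % of DMSO vehicle, with IC50 fitted by a 4-parameter curve. Cells had been seeded at 1200/well in 10% FBS RPMI 1640 and allowed 24 h before dosing.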
(In general: In ATP-based viability assays light output follows the ATP content of the culture.)

Consider `C=CC(=O)N1CCC(C#Cc2c(-c3ccc(Br)c(OC)c3)c3c(N)ncnc3n2C(C)C)CC1` [II-160, 1-(4-((4-amino-5-(4-bromo-3-methoxyphenyl)-7-isopropyl-7H-pyrrolo[2,3-d]pyrimidin-6-yl)ethynyl)piperidin-1-yl)prop-2-en-1-one], for which the IC50 (as a rule, the concentration needed to halve the response being measured) on SRC is not above 10 nM; in assay [1] (6 h), 10 to 1000 nM; with RBE cells, 10 to 1000 nM.
For the molecule `C=CC(=O)N1CC[C@@H](N2CC(C#Cc3c(-c4ccc(Cl)cc4)c4c(N)ncnc4n3C)C2)[C@@H](O)C1` [II-26], the IC50 (on SRC; in assay [1]; in the assay with RBE cells) was 10 to 1000 nM in each case.
Take “1-((3R,4S)-4-(3- ((4-amino-5-(4-(3- fluorophenoxy) phenyl)-7-methyl-7H- pyrrolo[2,3- d]pyrimidin-6- yl)ethynyl)azetidin- 1-yl)-3- hydroxypiperidin- 1-yl)prop-2-en-1- one [II-249]”: the IC50 at SRC is 10 to 1000 nM; in assay [1] it was not above 10 nM; with RBE cells, not above 10 nM.
For the molecule `C=CC(=O)N1CCC(C#Cc2c(-c3ccc(Oc4ccccc4)cc3)c3c(N)ncnc3n2C2CCNCC2)CC1` [Example I-40], the IC50 was 10 to 1000 nM at SRC, 1000 to 10000 nM in assay [1] (6 h) and 1000 to 10000 nM in the assay with RBE cells.
Take `C=CC(=O)N1CCC(N2CC(C#Cc3c(-c4ccc(Cl)cc4)c4c(N)ncnc4n3C(C)C)C2)CC1` [II-84]: the IC50 on SRC was not above 10 nM; in assay [1] it was 10 to 1000 nM; in the assay with RBE cells, 10 to 1000 nM.
Turning to `C=CC(=O)N1CCC(N2CC(C#Cc3c(-c4ccc(Oc5ccccc5)c(OC)n4)c4c(N)ncnc4n3C)C2)CC1CO` (stereo not drawn) [II-329], the IC50 (on SRC; in assay [1]; with RBE cells) was 10 to 1000 nM in each case.
With `C=CC(=O)NC1CCC(C#Cc2c(-c3ccc(Oc4ccccc4)cc3)c3c(N)ncnc3n2C(C)C)CC1` (stereo not drawn) [Example I-20], the results for the IC50 (at SRC; in assay [1] (6 h); in the assay on RBE cells) were 10 to 1000 nM, not above 10 nM and 10 to 1000 nM, respectively.
For the molecule `C=CC(=O)N1CC[C@@H](N2CC(C#Cc3c(-c4ccc(C5CC5)c(OC)c4)c4c(N)ncnc4n3C)C2)[C@@H](O)C1` [II-67], the 50% inhibitory concentration (IC50) (at SRC; in assay [1]; in the assay on RBE cells) was 10 to 1000 nM in each case.
`C=CC(=O)N1CC[C@@H](N2CC(C#Cc3c(-c4ccc5c(c4)OCCO5)c4c(N)ncnc4n3C)C2)[C@@H](O)C1` [II-74]: the IC50 (at SRC; in assay [1]; in the assay on RBE cells) was 10 to 1000 nM throughout.
On to `C=CC(=O)N1CC[C@H](N2CC(C#Cc3c(-c4ccc(F)c5c4OCO5)c4c(N)ncnc4n3C(C)C)C2)[C@H](F)C1` [II-286, 1-((3R,4S)-4-(3-((4-amino-5-(7-fluorobenzo[d][1,3]dioxol-4-yl)-7-isopropyl-7H-pyrrolo[2,3-d]pyrimidin-6-yl)ethynyl)azetidin-1-yl)-3-fluoropiperidin-1-yl)prop-2-en-1-one], for which the IC50 at SRC is not above 10 nM; in assay [1] (6 h) it was not above 10 nM; in the assay with RBE cells it was 10 to 1000 nM.
`C=CC(=O)N1CCC(N2CC(C#Cc3c(-c4ccccc4OC)c4c(N)ncnc4n3C)C2)CC1` [II-268]: the 50% inhibitory concentration (IC50) lay within 10 to 1000 nM at SRC, 1000 to 10000 nM in assay [1] (6 h) and 1000 to 10000 nM in the assay with RBE cells.
Consider `CCN(CC)C/C=C/C(=O)N1C[C@@H]2[C@@H](C#Cc3c(-c4ccc(Oc5ccccc5)cc4)c4c(N)ncnc4n3C)[C@@H]2C1` [II-223, (E)-1-((1R,5S,6s)-6-((4-amino-7-methyl-5-(4-phenoxyphenyl)-7H-pyrrolo[2,3-d]pyrimidin-6-yl)ethynyl)-3-azabicyclo[3.1.0]hexan-3-yl)-4-(diethylamino)but-2-en-1-one], for which the IC50 (on SRC; in assay [1] (6 h); in the assay on RBE cells) was 10 to 1000 nM throughout.
With `C=CC(=O)N1CCC(N2CC(C#Cc3c(-c4ccc(Oc5ccccc5)c(OC)n4)c4c(N)ncnc4n3C)C2)CC1` [II-315], the IC50 is 10 to 1000 nM on SRC, 10 to 1000 nM in assay [1] and not above 10 nM in the assay on RBE cells.
For the molecule `C=CC(=O)N1CCC(C#Cc2c(-c3ccc(Oc4ccccc4)cc3)c3c(N)ncnc3n2C(C)COC)CC1` (stereo not drawn) [Example I-57], the IC50 (at SRC; in assay [1] (6 h); in the assay on RBE cells) was 10 to 1000 nM throughout.
For the molecule `C=CC(=O)N1CCN([C@H]2C[C@@H](C#Cc3c(-c4ccc(Oc5ccccc5)cc4)c4c(N)ncnc4n3C)C2)C(=O)C1` [II-214, 4-acryloyl-1-((1s,3s)-3-((4-amino-7-methyl-5-(4-phenoxyphenyl)-7H-pyrrolo[2,3-d]pyrimidin-6-yl)ethynyl)cyclobutyl) piperazin-2-one], the IC50 (on SRC; in assay [1] (6 h); in the assay with RBE cells) was not above 10 nM each time.
In the case of `C=CC(=O)N1CC[C@@H](N2CC(C#Cc3c(-c4cc(OC)c(Cl)c(OC)c4)c4c(N)ncnc4n3C)C2)[C@@H](O)C1` [II-60], the 50% inhibitory concentration (IC50) (at SRC; in assay [1]; in the assay with RBE cells) was 10 to 1000 nM throughout.
Take `Cn1c(C#CC2CCCN(C(=O)/C=C/CN3CCOCC3)CC2)c(-c2ccc(Oc3ccccc3)cc2)c2c(N)ncnc21` (stereo not drawn) [II-181, (E)-1-(4-((4-amino-7-methyl-5-(4-phenoxyphenyl)-7H-pyrrolo[2,3-d]pyrimidin-6-yl)ethynyl)azepan-1-yl)-4-morpholinobut-2-en-1-one]: the IC50 on SRC fell in the range of 10 to 1000 nM; in assay [1] (6 h), 1000 to 10000 nM; with RBE cells, 1000 to 10000 nM.
Turning to `C=CC(=O)N1CC[C@H](N2CC(C#Cc3c(-c4ccc(Oc5ccccc5)cc4)c4c(N)ncnc4n3C)C2)[C@H](O)C1` [II-164, 1-((3R,4S)-4-(3-((4-amino-7-methyl-5-(4-phenoxyphenyl)-7H-pyrrolo[2,3-d]pyrimidin-6-yl)ethynyl)azetidin-1-yl)-3-hydroxypiperidin-1-yl)prop-2-en-1-one], the IC50 on SRC was 10 to 1000 nM; in assay [1] (6 h) it was not above 10 nM; in the assay on RBE cells, not above 10 nM.
Consider `C=CC(=O)N1CCCC(C#Cc2c(-c3ccc(Oc4ccccc4)cc3)c3c(N)ncnc3n2C)CC1` (stereo not drawn) [II-178, 1-(4-((4-amino-7-methyl-5-(4-phenoxyphenyl)-7H-pyrrolo[2,3-d]pyrimidin-6-yl)ethynyl)azepan-1-yl)prop-2-en-1-one], for which the IC50 (on SRC; in assay [1] (6 h); in the assay on RBE cells) was 10 to 1000 nM in each case.
On to `C=CC(=O)N1CC[C@@H](N2CC(C#Cc3c(-c4ccc(Cl)cc4)c4c(N)ncnc4n3CCOC)C2)[C@@H](O)C1` [II-54], for which the IC50 (at SRC; in assay [1]; with RBE cells) was 10 to 1000 nM in each case.
Turning to `C=CC(=O)N1CCC(N2CC(F)(C#Cc3c(-c4ccc(Oc5ccccc5)cc4)c4c(N)ncnc4n3C)C2)C(O)C1` (stereo not drawn) [III-1], the IC50 was 10 to 1000 nM on SRC, not above 10 nM in assay [1] (6 h) and not above 10 nM with RBE cells.
As to `C=CC(=O)N1CCC(N2CC(C#Cc3c(-c4ccc(F)c5c4OCO5)c4c(N)ncnc4n3C(C)C)C2)CC1` [II-134], the IC50 is not above 10 nM on SRC, 10 to 1000 nM in assay [1] and 10 to 1000 nM with RBE cells.
As for `C=CC(=O)N1CCC(N2CC(C#Cc3c(-c4ccc(Cl)c(OC)c4)c4c(N)ncnc4n3CCOC)C2)CC1` [II-87], the IC50 (on SRC; in assay [1]; in the assay with RBE cells) was 10 to 1000 nM in each case.
As for `C=CC(=O)N1CCC(C#Cc2c(-c3ccc(Oc4ccccc4)cc3)c3c(N)ncnc3n2C)CC1` [Example I-4], the half-inhibitory concentration (IC50) on SRC was 10 to 1000 nM; in assay [1] (6 h) it was not above 10 nM; in the assay on RBE cells, 10 to 1000 nM.
For `C=CC(=O)N1CCC(N2CC(C#Cc3c(-c4ccc(Oc5ccccc5)c(Cl)n4)c4c(N)ncnc4n3C)C2)CC1` [II-314], the IC50 is more than 10000 nM at SRC, 10 to 1000 nM in assay [1] and 10 to 1000 nM with RBE cells.
Take `C=CC(=O)N1CC[C@H](N2CC(C#Cc3c(-c4ccc(Cl)c(C)c4)c4c(N)ncnc4n3C(C)C)C2)[C@H](F)C1` [II-111]: the IC50 was not above 10 nM at SRC, 10 to 1000 nM in assay [1] and 10 to 1000 nM in the assay with RBE cells.
`C=CC(=O)N1C[C@@H]2[C@@H](C#Cc3c(-c4ccc(F)c5c4OCO5)c4c(N)ncnc4n3C)[C@@H]2C1` [II-130]: the IC50 on SRC is not above 10 nM; in assay [1], 10 to 1000 nM; in the assay with RBE cells, 10 to 1000 nM.
For the molecule `C=CC(=O)N1CC[C@@H](N2CC(C#Cc3c(-c4ccc(Oc5nccs5)cc4)c4c(N)ncnc4n3C)C2)[C@@H](O)C1` [II-21], the IC50 (at SRC; in assay [1]; with RBE cells) was 10 to 1000 nM in each case.
Turning to `Cn1c(C#CC2CCCN(C(=O)/C=C/CN3CCC3)CC2)c(-c2ccc(Oc3ccccc3)cc2)c2c(N)ncnc21` (stereo not drawn) [II-182, (E)-1-(4-((4-amino-7-methyl-5-(4-phenoxyphenyl)-7H-pyrrolo[2,3-d]pyrimidin-6-yl)ethynyl)azepan-1-yl)-4-(azetidin-1-yl)but-2-en-1-one], the IC50 (on SRC; in assay [1] (6 h); in the assay with RBE cells) was not above 10 nM each time.
`Cn1c(C#CC2CN(C(=O)/C=C/CN3CC(F)C3)C2)c(-c2ccc(Oc3ccccc3)cc2)c2c(N)ncnc21` [II-172, (E)-1-(3-((4-amino-7-methyl-5-(4-phenoxyphenyl)-7H-pyrrolo [2,3-d]pyrimidin-6-yl)ethynyl)azetidin-1-yl)-4-(3-fluoroazetidin-1-yl)but-2-en-1-one]: the IC50 (on SRC; in assay [1] (6 h); with RBE cells) was 10 to 1000 nM throughout.
